The values below are quoted from earlier work in patent publication US6372423B1, “Method for stabilizing platelets” (Dade Behring Marburg GmbH, priority 1996, dated 2002).

Structures are written as SMILES. Counter-ions that a name gives are not always drawn.

The conditions of this series: intravenous administration of 0.8 mg per kg and hour.

Take `CCN(CCO)CCCC(C)Nc1ccnc2cc(Cl)ccc12` (stereo not shown) [hydroxychloroquine sulfate]: the Toxicological assessment result is on record as “toxicologically harmless”.
